Reference: publication PMC8879702, “Discovery of Small Molecule Activators of Chemokine Receptor CXCR4 That Improve Diabetic Wound Healing” (International Journal of Molecular Sciences, 2022)

Tested on: miR-15b
Assay: miR-15b expression in human diabetic fibroblasts (real time qPCR)
Type: cell-based
Description: An additional secondary screen was performed to further validate the activity of UCUF-728 as a selective CXCR4 receptor modulator. Human diabetic and non-diabetic fibroblasts were cultured with increasing concentrations of the compound. The cells were incubated for 24 h and then total cellular RNA was isolated to examine the ability of the compound to correct the abnormal expression of miR-15b, and miR-29a. We have shown that human diabetic skin has an increased miR-15b expression at the baseline compared to non-diabetic skin [7].
CEM-CCRF cells (ATCC CCL-119) were cultured in growth media consisting of RPMI 1640 (Corning; Corning NY, USA) supplemented with 10% Fetal Bovine Serum (Corning; Corning, NY, USA), and 100 IU penicillin, […] streptomycin sulfate (Corning; Corning, NY, USA). Cells were maintained in suspension and subcultured twice weekly to maintain cell densities between 0.8 × 10^6 cells/mL and 2.5 × 10^6 cells/mL to maintain exponential growth phase. […]
Total RNA was extracted with TRIzol reagent (Invitrogen, Carlsbad, CA, USA) according to the manufacturer’s established protocol. […] Quantitative PCR was performed on a BIO-RAD CFX96 according to the manufacturer’s instructions. Quantitative values of genes of interest are normalized based on U6. […]

## COc1ccc(OC)c(NS(=O)(=O)c2ccc(-c3cnc(C4CC4)o3)cc2)c1 [Compound 19]
  lowest concentration with potent suppression of miR-15b expression: 0.1 µM
24 h
  miR-15b expression: decreased the expression of miR-15b
